This note sets out measurements from patent publication US5641659A, “α-l-rhamnosidase for obtaining rhamnose, a process for its preparation and its use” (priority 1992, dated 1997).

The subject of this assay is α-L-rhamnosidase from Penicillium sp. DSM 6826. Briefly: Influence of different substances on the activity of the purified α-L-rhamnosidase. The conditions noted are these: control = 100. In kind it is biochemical. How it is done: p-Nitrophenyl-α-L-rhamnopyranoside is used as the substrate for detecting the α-L-rhamnosidase activity. 10 mg of this substrate are dissolved in 10 ml of ammonium acetate buffer (pH 5.5, 50 mM). 100 μl of culture filtrate or cell lysates are added to 900 μl of this solution and the mixture is then incubated at 40° C. After 0, 3, 6, 9 and 12 minutes, 200 μl are removed and mixed with 800 μl of 200 mM borate buffer, pH 9. The release-of p-nitrophenol is monitored photometrically at 410 nm; naringinase (following Romero et al. Anal. Biochem. 149 566-571 (1985)) was used as the control.
The investigations summarized in the table below were carried out using the purified enzyme.

As to `[Cl][Cu][Cl]` [CuCl2], for the setting “substance at 0.5 mM”, the “% activity” value is on record as 40%.

Take `O=S(=O)([O-])[O-].[Mg+2]` [MgSO4]: under “substance at 2 mM”, the “% activity” value is given as 106%. For the molecule `[Cl-].[K+]` [KCl], the “% activity” value (substance at 100 mM) is 69%. With `[Cl-].[Cs+]` [CsCl], for the setting “substance at 2 mM”, the “% activity” value came out at 96%. For the molecule `O=C(O)CN(CCOCCOCCN(CC(=O)O)CC(=O)O)CC(=O)O` [EGTA, reference compound], where the note is “substance at 10 mM”, the “% activity” value is given as 60%. In the case of `[Cl-].[Cl-].[Zn+2]` [ZnCl2], for the setting “substance at 2 mM”, the “% activity” value worked out at 65%.

As for `[Ca+2].[Cl-].[Cl-]` [CaCl2], the “% activity” value (substance at 20 mM) was 127%. Turning to `[Cl-].[Cl-].[Co+2]` [CoCl2], the “% activity” value (substance at 2 mM) is given as 41%. `O=C(O)CN(CCN(CC(=O)O)CC(=O)O)CC(=O)O` [EDTA, reference compound]: where the note is “substance at 10 mM”, the “% activity” value was determined as 22%. Consider `C[C@@H]1OC(O)[C@H](O)[C@H](O)[C@H]1O` (single isomer, unassigned) [L-Rhamnose, 6-deoxy-L-mannose], for which the “% activity” value amounted to 51% (substance at 0.5 M), 39.5% (substance at 1.0 M) and 26.4% (substance at 1.5 M). Regarding `[Cl][Mn][Cl]` [MnCl2], where the note is “substance at 2 mM”, the “% activity” value was 27%. Take `O=S(=O)([O-])[O-].[Fe+2]` [FeSO4]: the “% activity” value (substance at 0.5 mM) is on record as 100%.
